Measurements: patent US6525001B1, “Substituted pyrimidine and pyridine herbicides” (Mid-American Commercialization Corporation, priority 1997, dated 2003)

Experiments:
Assay type in all cases: in vivo
Design in all cases: key: 0 is no effect; 10 is complete control
[1] = system: smallflower flatsedge (Cyperus difformis); experiment: Test B flood test
Method in brief: (§1)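 Plants were grown to the 2-leaf stage before treatment with test chemical, then held in a greenhouse for twelve to sixteen days. Injury was visually rated against untreated controls on a 0–10 scale, where 0 is no effect and 10 is complete control.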

rice (Oryza sativa) = experiment: Test B flood test
Method in brief: as §1

[2] = system: duck salad (Heteranthera limosa); experiment: Test B flood test
Method in brief: as §1

[3] = system: bamyardgrass (Echinochloa crus-galli); experiment: Test B flood test
Method in brief: as §1

[4] = system: purple nutsedge (Cyperus rotundus); experiment: Test B pre-/postemergence
Method in brief: (§2)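 Seeds were planted and sprayed preemergence, while plants at 2 to 18 cm (1- to 4-leaf stage) were sprayed postemergence at the same time, with test chemical in a non-phytotoxic solvent mixture containing surfactant. After twelve to sixteen days in a greenhouse, injury was rated visually against untreated controls on a 0–10 scale.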

[5] = system: velvetleaf (Abutilon theophrasti); experiment: Test B pre-/postemergence
Method in brief: as §2

wild oat (Avena fatua) = experiment: Test B pre-/postemergence
Method in brief: as §2

corn (Zea mays) = experiment: Test B pre-/postemergence
Method in brief: as §2

[6] = system: wheat (Triticum aestivum); experiment: Test B pre-/postemergence
Method in brief: as §2

[7] = system: cocklebur (Xanthium strumarium); experiment: Test B pre-/postemergence
Method in brief: as §2

[8] = system: pigweed (Amaranthus retroflexus); experiment: Test B pre-/postemergence
Method in brief: as §2

soybean (Glycine max) = experiment: Test B pre-/postemergence
Method in brief: as §2

[9] = system: sugar beet (Beta vulgaris); experiment: Test B pre-/postemergence
Method in brief: as §2

[10] = system: crabgrass (Digitaria sanguinalis); experiment: Test B pre-/postemergence
Method in brief: as §2

[11] = system: giant foxtail (Setaria faberii); experiment: Test B pre-/postemergence
Method in brief: as §2

rape (Brassica napus) = experiment: Test B pre-/postemergence
Method in brief: as §2

[12] = system: broadleaf signalgrass (Brachiaria decumbens); experiment: Test B pre-/postemergence
Method in brief: as §2

[13] = system: momingglory (Ipomoea hederacea); experiment: Test B pre-/postemergence
Method in brief: as §2

[14] = system: blackgrass (Alopecurus myosuroides); experiment: Test B pre-/postemergence
Method in brief: as §2

[15] = system: bedstraw (Galium aparine); experiment: Test B pre-/postemergence
Method in brief: as §2

[16] = Rate 62 g/ha, Postemergence (flood test)
[17] = Rate 125 g/ha, Postemergence section (flood test species)
[18] = Rate 250 g/ha, Postemergence (flood test species)
[19] = Preemergence, Rate 62 g/ha, scale of 0 to 10

## COc1cnc(-n2ccc(C(F)(F)F)n2)nc1C(=O)c1cccc(C(F)(F)F)c1 [Compound 60]
[1]; [16]
  S. Flatsedge plant response rating: 4
[1]; [17]
  S. Flatsedge plant response rating: 5
[1]; [18]
  Plant response rating, S. Flatsedge: 6
Rice (Oryza sativa); [16]
  Rice plant response rating: 0
Rice (Oryza sativa); [17]
  Rice plant response rating: 0
Rice (Oryza sativa); [18]
  Plant response rating, Rice: 1
[2]; [16]
  Ducksalad plant response rating: 1
[2]; [17]
  Ducksalad plant response rating: 2
[2]; [18]
  Plant response rating, Ducksalad: 2
[3]; [16]
  Barnyardgrass plant response rating: 1
[3]; [17]
  Barnyardgrass plant response rating: 1
[3]; [18]
  Plant response rating, Barnyardgrass: 2
[4]; [19]
  Plant response rating, Nutsedge: 0
[4]; Rate 62 g/ha, Postemergence
  Nutsedge plant response rating: 0
[4]; Rate 125 g/ha, Postemergence
  Nutsedge plant response rating: 0
[4]; Rate 125 g/ha, Preemergence
  Plant response rating, Nutsedge: 0
[4]; Rate 250 g/ha, Postemergence
  Plant response rating, Nutsedge: 0
[5]; [19]
  Plant response rating, Velvetleaf: 1
[5]; Rate 62 g/ha, Postemergence
  Velvetleaf plant response rating: 2
[5]; Rate 125 g/ha, Postemergence
  Velvetleaf plant response rating: 2
[5]; Rate 125 g/ha, Preemergence
  Plant response rating, Velvetleaf: 1
[5]; Rate 250 g/ha, Postemergence
  Plant response rating, Velvetleaf: 2
[5]; Rate 250 g/ha, Preemergence
  Plant response rating, Velvetleaf: 1
Wild oat (Avena fatua); [19]
  Plant response rating, Wild oats: 0
Wild oat (Avena fatua); Rate 62 g/ha, Postemergence
  Wild oats plant response rating: 2
Wild oat (Avena fatua); Rate 125 g/ha, Postemergence
  Wild oats plant response rating: 2
Wild oat (Avena fatua); Rate 125 g/ha, Preemergence
  Plant response rating, Wild oats: 0
Wild oat (Avena fatua); Rate 250 g/ha, Postemergence
  Plant response rating, Wild oats: 2
Wild oat (Avena fatua); Rate 250 g/ha, Preemergence
  Plant response rating, Wild oats: 0
Corn (Zea mays); [19]
  Plant response rating, Corn: 0
Corn (Zea mays); Rate 62 g/ha, Postemergence
  Corn plant response rating: 2
Corn (Zea mays); Rate 125 g/ha, Postemergence
  Corn plant response rating: 2
Corn (Zea mays); Rate 125 g/ha, Preemergence
  Plant response rating, Corn: 0
Corn (Zea mays); Rate 250 g/ha, Postemergence
  Plant response rating, Corn: 3
Corn (Zea mays); Rate 250 g/ha, Preemergence
  Plant response rating, Corn: 0
[6]; [19]
  Plant response rating, Wheat: 0
[6]; Rate 62 g/ha, Postemergence
  Wheat plant response rating: 2
[6]; Rate 125 g/ha, Postemergence
  Wheat plant response rating: 3
[6]; Rate 125 g/ha, Preemergence
  Plant response rating, Wheat: 0
[6]; Rate 250 g/ha, Postemergence
  Plant response rating, Wheat: 3
[6]; Rate 250 g/ha, Preemergence
  Plant response rating, Wheat: 0
[7]; [19]
  Plant response rating, Cocklebur: 0
[7]; Rate 62 g/ha, Postemergence
  Cocklebur plant response rating: 3
[7]; Rate 125 g/ha, Postemergence
  Cocklebur plant response rating: 3
[7]; Rate 125 g/ha, Preemergence
  Plant response rating, Cocklebur: 0
[7]; Rate 250 g/ha, Postemergence
  Plant response rating, Cocklebur: 4
[7]; Rate 250 g/ha, Preemergence
  Plant response rating, Cocklebur: 0
[8]; [19]
  Plant response rating, Redroot pigweed: 6
[8]; Rate 62 g/ha, Postemergence
  Redroot pigweed plant response rating: 5
[8]; Rate 125 g/ha, Postemergence
  Redroot pigweed plant response rating: 7
[8]; Rate 125 g/ha, Preemergence
  Plant response rating, Redroot pigweed: 9
[8]; Rate 250 g/ha, Postemergence
  Plant response rating, Redroot pigweed: 7
[8]; Rate 250 g/ha, Preemergence
  Plant response rating, Redroot pigweed: 10
Soybean (Glycine max); [19]
  Plant response rating, Soybean: 0
Soybean (Glycine max); Rate 62 g/ha, Postemergence
  Soybean plant response rating: 2
Soybean (Glycine max); Rate 125 g/ha, Postemergence
  Soybean plant response rating: 2
Soybean (Glycine max); Rate 125 g/ha, Preemergence
  Plant response rating, Soybean: 0
Soybean (Glycine max); Rate 250 g/ha, Postemergence
  Plant response rating, Soybean: 2
Soybean (Glycine max); Rate 250 g/ha, Preemergence
  Plant response rating, Soybean: 0
[9]; [19]
  Plant response rating, Sugarbeets: 6
[9]; Rate 62 g/ha, Postemergence
  Sugarbeets plant response rating: 8
[9]; Rate 125 g/ha, Postemergence
  Sugarbeets plant response rating: 8
[9]; Rate 125 g/ha, Preemergence
  Plant response rating, Sugarbeets: 8
[9]; Rate 250 g/ha, Postemergence
  Plant response rating, Sugarbeets: 9
[9]; Rate 250 g/ha, Preemergence
  Plant response rating, Sugarbeets: 9
[10]; [19]
  Plant response rating, Crabgrass: 0
[10]; Rate 62 g/ha, Postemergence
  Crabgrass plant response rating: 2
[10]; Rate 125 g/ha, Postemergence
  Crabgrass plant response rating: 3
[10]; Rate 125 g/ha, Preemergence
  Plant response rating, Crabgrass: 2
[10]; Rate 250 g/ha, Postemergence
  Plant response rating, Crabgrass: 4
[10]; Rate 250 g/ha, Preemergence
  Plant response rating, Crabgrass: 6
[11]; [19]
  Plant response rating, Giant foxtail: 2
[11]; Rate 62 g/ha, Postemergence
  Giant foxtail plant response rating: 2
[11]; Rate 125 g/ha, Postemergence
  Giant foxtail plant response rating: 2
[11]; Rate 125 g/ha, Preemergence
  Plant response rating, Giant foxtail: 2
[11]; Rate 250 g/ha, Postemergence
  Plant response rating, Giant foxtail: 2
[11]; Rate 250 g/ha, Preemergence
  Plant response rating, Giant foxtail: 5
Rape (Brassica napus); [19]
  Plant response rating, Rape: 0
Rape (Brassica napus); Rate 62 g/ha, Postemergence
  Rape plant response rating: 3
Rape (Brassica napus); Rate 125 g/ha, Postemergence
  Rape plant response rating: 3
Rape (Brassica napus); Rate 125 g/ha, Preemergence
  Plant response rating, Rape: 0
Rape (Brassica napus); Rate 250 g/ha, Postemergence
  Plant response rating, Rape: 4
Rape (Brassica napus); Rate 250 g/ha, Preemergence
  Plant response rating, Rape: 1
[12]; Rate 62 g/ha, Postemergence
  B. signalgrass plant response rating: 2
[12]; Rate 62 g/ha, Preemergence
  B. signalgrass plant response rating: 2
[12]; Rate 125 g/ha, Postemergence
  B. signalgrass plant response rating: 2
[12]; Rate 125 g/ha, Preemergence
  Plant response rating, B. signalgrass: 3
[12]; Rate 250 g/ha, Postemergence
  Plant response rating, B. signalgrass: 3
[12]; Rate 250 g/ha, Preemergence
  Plant response rating, B. signalgrass: 3
[13]; [19]
  Plant response rating, Morningglory: 1
[13]; Rate 62 g/ha, Postemergence
  Morningglory plant response rating: 2
[13]; Rate 125 g/ha, Postemergence
  Morningglory plant response rating: 4
[13]; Rate 125 g/ha, Preemergence
  Plant response rating, Morningglory: 2
[13]; Rate 250 g/ha, Postemergence
  Plant response rating, Morningglory: 9
[13]; Rate 250 g/ha, Preemergence
  Plant response rating, Morningglory: 5
[14]; [19]
  Plant response rating, Blackgrass: 1
[14]; Rate 62 g/ha, Postemergence
  Blackgrass plant response rating: 1
[14]; Rate 125 g/ha, Postemergence
  Blackgrass plant response rating: 1
[14]; Rate 125 g/ha, Preemergence
  Plant response rating, Blackgrass: 1
[14]; Rate 250 g/ha, Postemergence
  Plant response rating, Blackgrass: 2
[14]; Rate 250 g/ha, Preemergence
  Plant response rating, Blackgrass: 2
[15]; [19]
  Plant response rating, Bedstraw: 0
[15]; Rate 62 g/ha, Postemergence
  Bedstraw plant response rating: 2
[15]; Rate 125 g/ha, Postemergence
  Bedstraw plant response rating: 3
[15]; Rate 125 g/ha, Preemergence
  Plant response rating, Bedstraw: 0
[15]; Rate 250 g/ha, Postemergence
  Plant response rating, Bedstraw: 3
[15]; Rate 250 g/ha, Preemergence
  Plant response rating, Bedstraw: 1
